Results: ChEMBL document CHEMBL5137021, “Organotropic dendrons with high potency as HIV-1, HIV-2 and EV-A71 cell entry inhibitors” (Eur J Med Chem, 2022)

Tests used:
Enterovirus A71 [1] = test: Antiviral activity against Enterovirus A71 BrCr harboring VP1_P246S mutant infected in RD cells assessed as protection against virus induced cytopatheic effect measured after 5 days by MTS assay; type: functional, organism-based
[2] = Cytotoxicity against human MT4 cells assessed as cell viability measured after 5 days by MTS assay; type: toxicity, cell-based; conditions: time 5 day
Enterovirus A71 [3] = test: Antiviral activity against EV-A71 genotype A BrCr infected in RD cells assessed as protection against virus induced cytopatheic effect measured after 5 days by MTS assay; type: functional, organism-based; conditions: 120 h
Enterovirus A71 [4] = test: Antiviral activity against EV-A71 infected in RD cells assessed as protection against virus induced cytopatheic effect measured after 5 days by MTS assay; type: functional, organism-based; conditions: Enterovirus A, 120 h
[5] = test system: Human immunodeficiency virus 2; test: Antiviral activity against HIV2 ROD infected in human MT4 cells assessed as protection against virus induced cytopatheic effect measured after 5 days by MTS assay; type: functional, organism-based; conditions: Human immunodeficiency virus 2, ROD, MT4, 120 h
[6] = Selectivity index, ratio of CC50 for human MT4 cells to EC50 for antiviral activity against HIV-1 NL4.3; type: toxicity; conditions: read-out: Ratio CC50/EC50
[7] = Cytotoxicity against human RD cells assessed as cell viability measured after 5 days by MTS assay; type: toxicity, cell-based; conditions: time 5 day
[8] = Selectivity index, ratio of CC50 for human RD cells to EC50 for antiviral activity against EV-A71; type: toxicity; conditions: read-out: Ratio CC50/EC50
Enterovirus A71 [9] = test: Antiviral activity against Enterovirus A71 BrCr harboring VP1_S184T mutant infected in RD cells assessed as protection against virus induced cytopatheic effect measured after 5 days by MTS assay; type: functional, organism-based
[10] = test system: Human immunodeficiency virus 1; test: Antiviral activity against HIV1 NL4-3 infected in human MT4 cells assessed as protection against virus induced cytopatheic effect measured after 5 days by MTS assay; type: functional, organism-based; conditions: Human immunodeficiency virus 1, NL4-3, MT4, 120 h
Enterovirus A71 [11] = test: Antiviral activity against Enterovirus A71 BrCr harboring VP1_S184T_P246S mutant infected in RD cells assessed as protection against virus induced cytopatheic effect measured after 5 days by MTS assay; type: functional, organism-based
enterovirus D68 = test: Antiviral activity against Enterovirus D68 CU70 infected in HeLa cells assessed as protection against virus induced cytopatheic effect measured after 5 days by MTS assay; type: functional, organism-based; conditions: Enterovirus D, 120 h
Coxsackievirus B3 = test: Antiviral activity against Coxsackievirus B3 Nancy strain infected in Vero cells assessed as protection against virus induced cytopatheic effect measured after 5 days by MTS assay; type: functional, organism-based; conditions: Enterovirus B, 120 h
rhinovirus A2 = test: Antiviral activity against Rhinovirus 2 infected in HeLa cells assessed as protection against virus induced cytopatheic effect measured after 5 days by MTS assay; type: functional, organism-based, Enterovirus; conditions: Rhinovirus A, 2, HeLa, 120 h
Enterovirus A71 [12] = test: Antiviral activity against EV-A71 genotype B2 11316 infected in RD cells assessed as protection against virus induced cytopatheic effect measured after 5 days by MTS assay; type: functional, organism-based; conditions: Enterovirus A, genotype B2 11316, RD, 120 h
Enterovirus A71 [13] = test: Antiviral activity against Enterovirus A71 BrCr infected in RD cells assessed as protection against virus induced cytopatheic effect measured after 5 days by MTS assay; type: functional, organism-based; conditions: Enterovirus A, 120 h
rhinovirus B14 = test: Antiviral activity against Rhinovirus 14 infected in HeLa cells assessed as protection against virus induced cytopatheic effect measured after 5 days by MTS assay; type: functional, organism-based, Enterovirus; conditions: Rhinovirus B, 14, HeLa, 120 h
Enterovirus A71 [14] = test: Antiviral activity against EV-A71 genotype C2 H08300 461#812 infected in RD cells assessed as protection against virus induced cytopatheic effect measured after 5 days by MTS assay; type: functional, organism-based; conditions: Enterovirus A, genotype C2 H08300 461#812, RD, 120 h
Enterovirus A71 [15] = test: Antiviral activity against EV-A71 genotype C4 TW/1956/05 infected in RD cells assessed as protection against virus induced cytopatheic effect measured after 5 days by MTS assay; type: functional, organism-based; conditions: Enterovirus A, genotype C4 TW/1956/05, RD, 120 h
Enterovirus A71 [16] = test: Antiviral activity against EV-A71 genotype B5 TW/70902/08 infected in RD cells assessed as protection against virus induced cytopatheic effect measured after 5 days by MTS assay; type: functional, organism-based; conditions: Enterovirus A, genotype B5 TW/70902/08, RD, 120 h
[17] = Ex vivo biodistribution in ip dosed C57BL/6 mouse lung measured after 72 hrs by fluorescence analysis; type: ADME, organism-based
[18] = Ex vivo biodistribution in ip dosed C57BL/6 mouse intestine measured after 72 hrs by fluorescence analysis; type: ADME, organism-based
[19] = Ex vivo biodistribution in ip dosed C57BL/6 mouse intestine measured after 24 hrs by fluorescence analysis; type: ADME, organism-based
[20] = Ex vivo biodistribution in ip dosed C57BL/6 mouse lung measured after 24 hrs by fluorescence analysis; type: ADME, organism-based
[21] = Ex vivo biodistribution in iv dosed C57BL/6 mouse intestine measured after 2 hrs by fluorescence analysis; type: ADME, organism-based
[22] = Ex vivo biodistribution in ip dosed C57BL/6 mouse intestine measured after 2 hrs by fluorescence analysis; type: ADME, organism-based

Row | Structure (SMILES) | EC50 (Enterovirus A71 [1]) [nM] | CC50 at 120 h [2] [nM] | EC50 (Enterovirus A71 [3]) [nM] | EC50 (Enterovirus A71 [4]) [nM] | EC50 [5] [nM] | selectivity ratio [6] | CC50 at 120 h [7] [nM] | selectivity ratio [8] | EC50 (Enterovirus A71 [9]) [nM] | EC50 [10] [nM] | EC50 (Enterovirus A71 [11]) [nM] | other results
1 | O=C(CCC(CCC(=O)NC(Cc1c(-c2cc(C(=O)O)cc(C(=O)O)c2)[nH]c2ccccc12)C(=O)O)(CCC(=O)NC(Cc1c(-c2cc(C(=O)O)cc(C(=O)O)c2)[nH]c2ccccc12)C(=O)O)[N+](=O)[O-])NC(Cc1c(-c2cc(C(=O)O)cc(C(=O)O)c2)[nH]c2ccccc12)C(=O)O (configuration not stated) | 1900 | > 100000 | 353 | 350 | 630 | > 370 | > 75000 | > 103 | 2300 | 270 | 2200 | –
2 | O=C(CCC(CCC(=O)NC(Cc1c(-c2cc(C(=O)O)cc(C(=O)O)c2)[nH]c2ccccc12)C(=O)O)(CCC(=O)NC(Cc1c(-c2cc(C(=O)O)cc(C(=O)O)c2)[nH]c2ccccc12)C(=O)O)NC(=O)CCCCCCNC(=O)Nc1cc(C(=O)O)cc(C(=O)O)c1)NC(Cc1c(-c2cc(C(=O)O)cc(C(=O)O)c2)[nH]c2ccccc12)C(=O)O (configuration not stated) | 60 | > 100000 | 42 | 50 | 50 | > 92 | > 100000 | > 2000 | 300 | 1090 | 300 | EC50 (enterovirus D68): > 50000 nM; EC50 (Coxsackievirus B3): > 50000 nM; EC50 (rhinovirus A2): > 50000 nM; EC50 (Enterovirus A71 [12]): 75 nM; EC50 (Enterovirus A71 [13]): 40 nM; EC50 (rhinovirus B14): > 50000 nM; EC50 (Enterovirus A71 [14]): 91 nM; EC50 (Enterovirus A71 [15]): 6 nM; EC50 (Enterovirus A71 [16]): 2 nM
3 | CC1(CCCCCCC(=O)NC(CCC(=O)NC(Cc2c(-c3cc(C(=O)O)cc(C(=O)O)c3)[nH]c3ccccc23)C(=O)O)(CCC(=O)NC(Cc2c(-c3cc(C(=O)O)cc(C(=O)O)c3)[nH]c3ccccc23)C(=O)O)CCC(=O)NC(Cc2c(-c3cc(C(=O)O)cc(C(=O)O)c3)[nH]c3ccccc23)C(=O)O)C(/C=C/C=C/C=C2/N(CCCS(=O)(=O)O)c3ccc(S(=O)(=O)O)cc3C2(C)C)=[N+](CCCS(=O)(=O)O)c2ccc(S(=O)(=O)O)cc21.[Na+].[Na+].[Na+].[Na+].[Na+].[Na+].[Na+].[Na+].[Na+].[Na+].[Na+].[Na+] (configuration not stated) | – | – | – | – | – | – | – | – | – | – | – | Drug uptake [17]: Active; Drug uptake [18]: Active; Drug uptake [19]: Active; Drug uptake [20]: Active; Drug uptake [21]: Active; Drug uptake [22]: Active
